Data taken from patent publication US4904673A, “Agent for treating bradycardia and bradyarrhythmia” (Dr. Karl Thomae, GmbH, priority 1988, dated 1990).

What was measured:
[1] = molecular target: muscarinic receptors in cerebral cortex; test: Receptor binding test in vitro, 3H-NMS displacement, cerebral cortex homogenate; settings: rat cerebral cortex homogenate 1:3000; 0.3 nanomolar 3H-NMS; 30° C., 45 minutes; read-out: Receptor Binding Tests IC50 Cortex
Procedure: The organs were donated by male Sprague-Dawley rats weighing 180-220 g. After the heart and subman-dibular gland and cerebral cortex had been removed, all other steps were carried out in ice cold Hepes HCl buffer (pH 7.4; 100 millimolar NaCl, 10 millimolar MgCl2). The whole heart was cut up with scissors. All the organs were then homogenised in a Potter apparatus.
(§1) For the binding test the homogenised organs were diluted as follows:
The homogenised organs were incubated at a certain concentration of the radioligand and at a series of concentrations of the non-radioactive test substances in an Eppendorf centrifuge tube at 30° C. Incubation lasted 45 minutes. The radioligand used was 0.3 nanomolar ^3 H-N-methylscopolamine (^3 H-NMS). Incubation was ended by the addition of ice cold buffer followed by vaccum filtration. The filters were rinsed with cold buffer and their radioactivity was determined. It represents the sum of specific and non-specific binding of ^3 H-NMS.
The proportion of non-specific binding was defined as the radioactivity which was bound in the presence of 1 micromolar quinuclidinyl-benzylate. Each measurement was taken four times. The IC^50 values of the non-labelled test substances were determined graphically. They represent that concentration of test substance at which the specific binding of ^3 H-NMS to the muscarinic receptors in the various organs was inhibited by 50%.

[2] = molecular target: T1, muscarinic receptors in heart (Rattus norvegicus, UniProt P10980); test: Receptor binding test in vitro, 3H-NMS displacement, whole heart homogenate; settings: rat whole heart homogenate 1:400; 0.3 nanomolar 3H-NMS; 30° C., 45 minutes; read-out: Receptor Binding Tests IC50 Heart
T1 construct: The whole heart was cut up with scissors; from tissue; host or cells: whole heart of male Sprague-Dawley rats, homogenate diluted 1:400
T1 sequence (P10980 1-466): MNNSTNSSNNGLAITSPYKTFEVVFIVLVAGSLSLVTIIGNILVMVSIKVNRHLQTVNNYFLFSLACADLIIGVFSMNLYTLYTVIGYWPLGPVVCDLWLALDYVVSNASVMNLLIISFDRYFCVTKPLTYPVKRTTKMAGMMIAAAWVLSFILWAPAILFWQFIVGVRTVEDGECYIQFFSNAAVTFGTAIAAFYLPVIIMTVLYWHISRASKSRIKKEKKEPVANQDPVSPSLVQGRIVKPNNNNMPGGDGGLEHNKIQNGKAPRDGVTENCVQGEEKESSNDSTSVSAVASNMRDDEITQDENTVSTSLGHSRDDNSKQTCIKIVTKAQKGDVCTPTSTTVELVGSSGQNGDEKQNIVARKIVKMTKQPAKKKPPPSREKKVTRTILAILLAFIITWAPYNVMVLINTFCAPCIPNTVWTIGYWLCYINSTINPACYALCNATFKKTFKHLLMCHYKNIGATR
Procedure: (§2) The organs were donated by male Sprague-Dawley rats weighing 180-220 g. […] The whole heart was cut up with scissors. All the organs were then homogenised in a Potter apparatus.
as §1
(§3) Incubation lasted 45 minutes. The radioligand used was 0.3 nanomolar ^3 H-N-methylscopolamine (^3 H-NMS). […] The filters were rinsed with cold buffer and their radioactivity was determined. It represents the sum of specific and non-specific binding of ^3 H-NMS.
(§4) Each measurement was taken four times. […] They represent that concentration of test substance at which the specific binding of ^3 H-NMS to the muscarinic receptors in the various organs was inhibited by 50%.

[3] = molecular target: T2, muscarinic receptors in submandibular gland (Rattus norvegicus, UniProt P08483); test: Receptor binding test in vitro, 3H-NMS displacement, submandibular gland homogenate; settings: rat submandibular gland homogenate 1:400; 0.3 nanomolar 3H-NMS; 30° C., 45 minutes; read-out: Receptor Binding Tests IC50 Submandibular gland
T2 construct: All the organs were then homogenised in a Potter apparatus; from tissue; host or cells: submandibular gland of male Sprague-Dawley rats, homogenate diluted 1:400
T2 sequence (P08483 whole entry): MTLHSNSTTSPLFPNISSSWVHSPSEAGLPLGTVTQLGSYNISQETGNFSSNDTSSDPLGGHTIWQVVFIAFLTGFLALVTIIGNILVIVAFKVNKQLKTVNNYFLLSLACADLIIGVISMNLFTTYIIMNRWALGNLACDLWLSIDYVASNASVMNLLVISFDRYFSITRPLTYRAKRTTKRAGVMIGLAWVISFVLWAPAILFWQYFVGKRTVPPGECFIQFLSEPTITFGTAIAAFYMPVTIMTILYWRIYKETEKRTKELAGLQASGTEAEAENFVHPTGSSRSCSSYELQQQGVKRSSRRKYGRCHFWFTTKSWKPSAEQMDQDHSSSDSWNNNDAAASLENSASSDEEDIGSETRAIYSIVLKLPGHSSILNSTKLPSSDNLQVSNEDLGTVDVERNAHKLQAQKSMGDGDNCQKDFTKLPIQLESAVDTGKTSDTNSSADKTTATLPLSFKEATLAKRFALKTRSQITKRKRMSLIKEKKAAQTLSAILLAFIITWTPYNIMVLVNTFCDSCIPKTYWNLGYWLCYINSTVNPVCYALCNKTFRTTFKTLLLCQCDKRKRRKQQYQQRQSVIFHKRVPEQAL
Procedure: as §2, §1
Submandibular gland 1:400
as §3, §4

[4] = tested on: acetylcholine effect on heart rate; test: Inhibition of the effect of acetylcholine on heart rate in anaesthetised guinea pigs; type: in vivo, guinea pig; settings: Cavia porcellus, iv, 5 min, 10 microgram/kg acetylcholine i.v. and intra-arterially 5 minutes after test substance, heart rate by ECG, read-out: -log ED50 Heart (converted)
Procedure: (§5) Substances with antimuscarinic properties inhibit the effects of agonists supplied exogenically or of acetylcholine, which is released from cholinergic nerve endings. The following is a description of an "in vivo" method which is suitable for the detection of cardioselective antimuscarinic agents.
(§6) Inhibition of the effect of acetylcholine on the bladder, bronchi and heart rate in guinea pigs
(§7) 5 minutes after the administration of the test substance, 10 microgram/kg of acetylcholine were simultaneously injected intravenously and intra-arterially into anaesthetised guinea pigs. The heart rate was recorded directly by extracorporeal derivation of the ECG, as were the expiration resistance according to Konzett-Rossler and the contraction of the exposed bladder. In order to determine the inhibition of the acetylcholine activity on the organs under investigation, dosage/activity curves were recorded and from them -log ED50 values were determined. For the results see Table II.

[5] = tested on: acetylcholine effect on bronchi; test: Inhibition of the effect of acetylcholine on bronchi (expiration resistance, Konzett-Rossler) in anaesthetised guinea pigs; type: in vivo, guinea pig; settings: Cavia porcellus, iv, 5 min, 10 microgram/kg acetylcholine i.v. and intra-arterially 5 minutes after test substance, read-out: -log ED50 Bronchi (converted)
Procedure: as §5, §6, §7

[6] = tested on: acetylcholine effect on bladder; test: Inhibition of the effect of acetylcholine on contraction of the exposed bladder in anaesthetised guinea pigs; type: in vivo, guinea pig; settings: Cavia porcellus, iv, 5 min, 10 microgram/kg acetylcholine i.v. and intra-arterially 5 minutes after test substance, read-out: -log ED50 Bladder (converted)
Procedure: as §5, §6, §7

Row | Structure (SMILES) | IC50 [1] [nM] | IC50 [2] [nM] | IC50 [3] [nM] | ED50 [4] [µmol/kg] | ED50 [5] [µmol/kg] | ED50 [6] [µmol/kg]
1 | CCN(CCCC(=O)N1CCC(C(=O)N(C)C)CC1)C(C)Cc1ccc(OC)cc1 (racemic) [A, (±)-1-[4-[ethyl[2-(4-methoxyphenyl)-1-methylethyl]amino]-1-oxobutyl]-N,N-dimethyl-4-piperidine carboxamide] | 50 | 10 | 300 | 0.0646 | 0.148 | 0.513
2 | CN1[C@@H]2CC[C@H]1C[C@@H](OC(=O)C(CO)c1ccccc1)C2 (stereo partly shown) [B, atropine, reference compound] | 2 |  |  |  |  | 
